PMC4604124, “In Vitro Characterization of the Pharmacological Properties of the Anti-Cancer Chelator, Bp4eT, and Its Phase I Metabolites” (PLoS ONE, 2015)
“And” between values parts separate entries of the source, which are not always exact repeats. Equal values may be shown once. Read-outs that look alike come from different tables or passages of the source.

Assays:
caspases 3/7 = experiment: Caspase activity, luminescent kit, caspases 3/7; format: cell-based, human; details: for kaspáza (3) a 7, raw signal / kaspáza (3) a 7, signal / viabilita: individual experiments by date; for kaspáza (3) a 7, raw signal, průměry / kaspáza (3) a 7, % kontroly / kaspáza (3) a 7, signal / viabilita, průměry: mean; for kaspáza (3) a 7, % kontroly / kaspáza (3) a 7, signal / viabilita / kaspáza (3) a 7, signal / viabilita, průměry: normalised to viability
Procedure: To assess the effect of the compounds on caspase activity, MCF-7 cells were incubated with 100 nM Bp4eT or its metabolites for 3, 24 or 72 h/37°C in 96-well plates, as described above. The cells were then lysed by adding 100 μL of cold lysis buffer (100 mM HEPES, 10 mM CHAPS, 10 mM D-L-dithiothreitol, pH 7.4) to 100 μL of medium in each well. Lysates were immediately frozen at -80°C. Thawed lysates were used to assess caspase activity using luminescent kits for caspases 3/7, 8 and 9 (Promega, Madison, WI, USA). The luminescence was measured using the Tecan Infinite 200M plate reader. Caspase activity in the experimental groups was corrected according to the cellular viability of each group and expressed as a percentage of activity of the untreated control (100%).

[1] = tested on: HL-60 human promyelocytic leukemia cells; experiment: MTT cytotoxicity assay, HL-60 cells; format: cell-based; details: for IC50: MTT, read-out: IC50
Procedure: For cytotoxicity experiments, cancer cells were seeded at a density of 5,000 (MCF-7), 10,000 (HL-60) or 2,000 cells/well (HCT116 and A549) in 96-well plates (TPP) for 24 h/37°C prior to the addition of examined agents. The non-cancerous cells, 3T3 and H9c2 cells, were cultured for 24 h/37°C in 96-well plates at a density of 10,000 cells/well, the medium was then changed to serum- and pyruvate-free DMEM (Sigma-Aldrich) and incubated with the cells for another 24 h/37°C. The cytotoxic effects of Bp4eT and its metabolites were studied at different concentrations after a 72 h/37°C incubation. In order to aid the dissolution of the lipophilic ligands, 0.1% dimethyl sulfoxide (v/v) (DMSO; Sigma-Aldrich) was present in the culture medium of all groups. At this concentration, DMSO had no effect on cellular proliferation or viability.
The viability of cells were determined using an MTT assay (Sigma-Aldrich) according to previously established methods. The optical density of soluble MTT was measured at λ = 570 nm, subtracting the λ = 690 nm background using a Tecan Infinite 200M plate reader (Tecan Group, Männedorf, Switzerland). The viability or proliferation of experimental groups was expressed as a percentage of the untreated controls (100%).
SigmaStat for Windows 3.5 (Systat Software, San Jose, CA, USA) statistical software package was utilized to analyze results. The data are expressed as the mean ± SD of a given number of experiments. Statistical significance was determined using a one-way ANOVA with a Bonferroni post-hoc test or Student’s t-test. The results were considered to be statistically significant when p < 0.05. The IC50 values were calculated using CalcuSyn 2.0 software (Biosoft, Cambridge, UK). Cell cycle analysis was evaluated using MultiCycle AV Software (Phoenix Flow Systems, San Diego, CA, USA).

MCF-7 cells = experiment: Cellular 59Fe uptake from 59Fe2-transferrin; format: cell-based, human; set-up: key to Uptake 59Fe, Ave / Uptake 59Fe: % of internalized 59Fe in untreated control cells; details: Control Ave = 100
Excerpt: Human transferrin (Sigma) was labeled with ^56Fe or ^59Fe (PerkinElmer, Massachusetts, USA) to produce ^56Fe2-transferrin or ^59Fe2-transferrin (^59Fe2-Tf), respectively, with a final specific activity of 500 pCi/pmol Fe, as previously described. Unbound ^59Fe was removed by exhaustive vacuum dialysis against a large excess of 0.15 M NaCl buffered to pH 7.4 with 1.4% NaHCO3 by standard methods.
The ability of the chelators to prevent cellular ^59Fe uptake from ^59Fe2-transferrin was examined using standard techniques. In brief, confluent MCF-7 cells in 6-well plates were incubated with 0.75 μM ^59Fe2-Tf for 3 h/37°C in the presence of Bp4eT or its metabolites (25 μM). The cells were then washed four times with ice-cold PBS and the level of internalized ^59Fe was determined by incubating the cell monolayer for 30 min/4°C with the general protease, Pronase (1 mg/mL; Sigma-Aldrich). The cells were then removed from the monolayer with a plastic spatula on ice and centrifuged for 1 min/12,000 x g/4°C. The supernatant represents membrane-bound, Pronase-sensitive ^59Fe that was released by the protease, while the Pronase-insensitive fraction represents internalized ^59Fe. The amount of internalized ^59Fe was expressed as a percentage of ^59Fe internalized by control (untreated) cells.

CCNC(=O)NN=C(c1ccccc1)c1ccccn1 [Z-Bp4eS, 2-benzoylpyridine 4-ethylsemicarbazone]
kaspáza (3) a 7, raw signal (caspases 3/7; 3 hodiny): 1797.5 and 1540 and 1728.5 and 1382 | kaspáza (3) a 7, raw signal, průměry (caspases 3/7; 3 hodiny): 1612 | kaspáza (3) a 7, % kontroly (caspases 3/7; 3 hodiny): 100.57 % kontroly | kaspáza (3) a 7, signal / viabilita (caspases 3/7; 3 hodiny): 18.4535 and 15.81 and 17.7452 and 14.1879 | kaspáza (3) a 7, signal / viabilita, průměry (caspases 3/7; 3 hodiny): 16.5491 | kaspáza (3) a 7, raw signal (caspases 3/7; 24 hodin): 2520 and 2115 and 2668.5 and 2356.5 | kaspáza (3) a 7, raw signal, průměry (caspases 3/7; 24 hodin): 2415 | kaspáza (3) a 7, % kontroly (caspases 3/7; 24 hodin): 106.11 % kontroly | kaspáza (3) a 7, signal / viabilita (caspases 3/7; 24 hodin): 25.3376 and 21.2655 and 26.8307 and 23.6936 | kaspáza (3) a 7, signal / viabilita, průměry (caspases 3/7; 24 hodin): 24.2818 | kaspáza (3) a 7, raw signal (caspases 3/7; 72 hodin): 7018 and 6964.5 and 7418.5 and 7469 | kaspáza (3) a 7, raw signal, průměry (caspases 3/7; 72 hodin): 7217.5 | kaspáza (3) a 7, % kontroly (caspases 3/7; 72 hodin): 104.65 % kontroly | kaspáza (3) a 7, signal / viabilita (caspases 3/7; 72 hodin): 75.0267 and 74.4548 and 79.3083 and 79.8482 | kaspáza (3) a 7, signal / viabilita, průměry (caspases 3/7; 72 hodin): 77.1595 | Therapeutic index, IC50 non-cancerous cells / IC50 neoplastic cells ([1]; 3T3/HL-60): >21.6 | Therapeutic index, IC50 non-cancerous cells / IC50 neoplastic cells ([1]; H9c2/HL-60): 7.4 | IC50 ([1]; HL-60, 72 h/37°C, mean ± SD, n ≥ 4): 46.2 ± 1.5 µM | MTT, relative to control (0 = 100) ([1]; HL-60, 10 000 b/j, 3 μM, průměr (mean), sheet Z-Bp4eS): 96.55 | MTT, relative to control (0 = 100) ([1]; HL-60, 10 000 b/j, 3 μM, single experiment (date), sheet Z-Bp4eS): 99.8024 and 101.089 and 96.0475 and 94.6794 and 91.1123 | MTT, relative to control (0 = 100) ([1]; HL-60, 10 000 b/j, 10 μM, průměr (mean), sheet Z-Bp4eS): 98.03 | MTT, relative to control (0 = 100) ([1]; HL-60, 10 000 b/j, 10 μM, single experiment (date), sheet Z-Bp4eS): 97.8586 and 97.7431 and 101.779 and 97.3762 and 95.3935 | MTT, relative to control (0 = 100) ([1]; HL-60, 10 000 b/j, 30 μM, průměr (mean), sheet Z-Bp4eS): 90.77 | MTT, relative to control (0 = 100) ([1]; HL-60, 10 000 b/j, 30 μM, single experiment (date), sheet Z-Bp4eS): 95.7321 and 90.5946 and 90.8492 and 85.9082 | MTT, relative to control (0 = 100) ([1]; HL-60, 10 000 b/j, 40 μM, průměr (mean), sheet Z-Bp4eS): 82.14 | MTT, relative to control (0 = 100) ([1]; HL-60, 10 000 b/j, 40 μM, single experiment (date), sheet Z-Bp4eS): 82.3316 and 84.0304 and 91.7648 and 77.576 and 75.0054 | MTT, relative to control (0 = 100) ([1]; HL-60, 10 000 b/j, 50 μM, průměr (mean), sheet Z-Bp4eS): 40.92 | MTT, relative to control (0 = 100) ([1]; HL-60, 10 000 b/j, 50 μM, single experiment (date), sheet Z-Bp4eS): 42.5442 and 42.5088 and 37.382 and 41.2548 | MTT, relative to control (0 = 100) ([1]; HL-60, 10 000 b/j, 80 μM, průměr (mean), sheet Z-Bp4eS): 2.08 | MTT, relative to control (0 = 100) ([1]; HL-60, 10 000 b/j, 100 μM, průměr (mean), sheet Z-Bp4eS): 2.48 | MTT, relative to control (0 = 100) ([1]; HL-60, 10 000 b/j, 300 μM, průměr (mean), sheet Z-Bp4eS): 2.72 | MTT, relative to control (0 = 100) ([1]; HL-60, 10 000 b/j, 300 μM, single experiment (date), sheet Z-Bp4eS): 3.195 and 2.8028 and 2.136 and 2.734 | IC50 ([1]; HL-60, 10 000 b/j, single experiment (date), sheet Z-Bp4eS): 46.2 µM and 48.3 µM and 45.5 µM | IC50 ([1]; Homo sapiens, HL-60, HL-60, 10 000 b/j, průměr (mean), sheet Z-Bp4eS): 46.2 µM | IC50 ([1]; Homo sapiens, HL-60, HL-60, 10 000 b/j, single experiment (date), sheet Z-Bp4eS): 44.9 µM | Uptake 59Fe, Ave (MCF-7 cells; average of all replicates): 99.1556 | Uptake 59Fe (MCF-7 cells; single replicate (three per date)): 95.0144 and 99.433 and 101.961 and 99.9491 and 96.6715 and 101.111 and 99.7324 and 96.809 and 101.719
